Reference: patent publication US20130171098A1, “Cyclopropyl Fused Indolobenzazepine HCV NS5B Inhibitors” (priority 2006, published 2013)
Like-named read-outs stand apart in the source and are kept apart here.

What was measured:
[1] = target: T1, HCV NS5B RdRp genotype 1b (Hepatitis C virus genotype 1b, UniProt Q9WMX2); test: HCV NS5B RdRp enzyme assay (standard / modified); assay type: biochemical
T1 construct: The protein was expressed with an 18 amino acid C-terminal truncation to enhance the solubility; made in house; host or cells: E. coli BL21(DE3), pET21a vector

[2] = system: HCV replicon cells; test: HCV replicon FRET / luciferase assay; assay type: cell-based, Hepatitis C virus
[3] = HCV NS5B RdRp genotype 1b enzyme
[4] = HCV replicon cells, FRET or luciferase activity

T1 sequence (Q9WMX2 2420-2992): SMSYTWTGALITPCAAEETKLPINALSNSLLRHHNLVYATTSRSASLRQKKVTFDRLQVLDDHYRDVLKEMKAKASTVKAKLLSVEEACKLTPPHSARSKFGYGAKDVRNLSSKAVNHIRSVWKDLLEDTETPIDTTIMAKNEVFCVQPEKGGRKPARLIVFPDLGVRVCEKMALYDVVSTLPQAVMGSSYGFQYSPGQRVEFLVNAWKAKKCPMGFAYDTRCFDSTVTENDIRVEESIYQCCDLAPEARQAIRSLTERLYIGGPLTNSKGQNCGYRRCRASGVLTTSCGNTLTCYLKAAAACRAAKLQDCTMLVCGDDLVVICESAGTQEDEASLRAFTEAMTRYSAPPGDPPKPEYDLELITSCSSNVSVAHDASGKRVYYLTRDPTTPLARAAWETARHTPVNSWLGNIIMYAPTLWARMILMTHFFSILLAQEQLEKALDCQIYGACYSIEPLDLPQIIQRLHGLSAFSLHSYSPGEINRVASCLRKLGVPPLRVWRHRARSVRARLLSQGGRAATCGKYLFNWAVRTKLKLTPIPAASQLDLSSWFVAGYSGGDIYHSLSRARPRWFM

Compound	IC50 [1, 3] [nM]	EC50 [2, 4] [nM]	IC50 [1] [nM]	EC50 ([2]; Hepatitis C virus) [nM]
COc1ccc2c(c1)C1CC1(C(=O)N1C3CCC1CN(C(C)=O)C3)Cn1c-2c(C2CCCCC2)c2ccc(C(=O)NS(=O)(=O)N(C)C)cc21 (stereo not shown) [drawing 60]	1 to 500	1 to 500		
CCN1CC2CCC(C1)N2C(=O)C12CC1c1cc(OC)ccc1-c1c(C3CCCCC3)c3ccc(C(=O)NS(=O)(=O)N(C)C)cc3n1C2 (stereo not shown) [drawing 61]	1 to 500	1 to 500		
COc1ccc2c(c1)C1CC1(C(=O)N1C3CCC1CN(C(C)C)C3)Cn1c-2c(C2CCCCC2)c2ccc(C(=O)NS(=O)(=O)N(C)C)cc21 (stereo not shown) [drawing 62]	1 to 500	1 to 500		
COc1ccc2c(c1)C1CC1(C(=O)N1C3CCC1CN(C)C3)Cn1c-2c(C2CCCCC2)c2ccc(C(=O)NS(N)(=O)=O)cc21 (stereo not shown) [drawing 63]	1 to 500	1 to 500		
COc1ccc2c(c1)C1CC1(C(=O)NC1CC3CCC(C1)N3C)Cn1c-2c(C2CCCCC2)c2ccc(C(=O)NS(=O)(=O)N(C)C)cc21 (stereo not shown) [drawing 64]	1 to 500	1 to 500		
COc1ccc2c(c1)C1CC1(C(=O)N1C3CCC1CN(CC1CC1)C3)Cn1c-2c(C2CCCCC2)c2ccc(C(=O)NS(=O)(=O)N(C)C)cc21 (stereo not shown) [drawing 65]	1 to 500	1 to 500		
COc1ccc2c(c1)C1CC1(C(=O)N1C3CCC1CN(c1ccccn1)C3)Cn1c-2c(C2CCCCC2)c2ccc(C(=O)NS(=O)(=O)N(C)C)cc21 (stereo not shown) [drawing 67]	1 to 500	1 to 500		
COc1ccc2c(c1)C1CC1(C(=O)N1C3CCC1CN(C)C3)Cn1c-2c(C2CCCCC2)c2ccc(C(=O)NS(=O)(=O)NC3CC3)cc21 (stereo not shown) [drawing 68]	1 to 500	1 to 500		
CN1CC2CCC(C1)N2C(=O)C12CC1c1cc(OCc3ccccc3)ccc1-c1c(C3CCCCC3)c3ccc(C(=O)NS(=O)(=O)N(C)C)cc3n1C2 (stereo not shown) [drawing 69]	1 to 500	1 to 500		
CN1CC2CCC(C1)N2C(=O)C12CC1c1cc(O)ccc1-c1c(C3CCCCC3)c3ccc(C(=O)NS(=O)(=O)N(C)C)cc3n1C2 (stereo not shown) [drawing 70]	1 to 500	1 to 500		
COc1ccc2c(c1)C1CC1(C(=O)N1C3CCC1CN(C)C3)Cn1c-2c(C2CCCCC2)c2ccc(C(=O)NS(C)(=O)=O)cc21 (stereo not shown) [drawing 89]			1 to 500	1 to 500
CN1CC2CCC(C1)N2C(=O)C12CC1c1cc(OC(F)F)ccc1-c1c(C3CCCCC3)c3ccc(C(=O)NS(=O)(=O)N(C)C)cc3n1C2 (stereo not shown) [drawing 90]			1 to 500	1 to 500
CCS(=O)(=O)NC(=O)c1ccc2c(C3CCCCC3)c3n(c2c1)CC1(C(=O)N2C4CCC2CN(C)C4)CC1c1cc(OC)ccc1-3 (stereo not shown) [drawing 91]			1 to 500	1 to 500
CCN(CC)C(=O)N1CC2CCC(C1)N2C(=O)C12CC1c1cc(OC)ccc1-c1c(C3CCCCC3)c3ccc(C(=O)NS(=O)(=O)C4CC4)cc3n1C2 (stereo not shown) [drawing 92]			1 to 500	1 to 500
CCN(CC)C(=O)N1CC2CCC(C1)N2C(=O)C12CC1c1cc(OC)ccc1-c1c(C3CCCCC3)c3ccc(C(=O)NS(=O)(=O)N4CCN(C)CC4)cc3n1C2 (stereo not shown) [drawing 93]			1 to 500	1 to 500
COc1ccc2c(c1)C1CC1(C(=O)N1C3CCC1CN(C)C3)Cn1c-2c(C2CCCCC2)c2ccc(C(=O)NS(=O)(=O)N3C[C@@H](C)O[C@@H](C)C3)cc21 (stereo partly shown) [drawing 94]			1 to 500	1 to 500
COc1ccc2c(c1)C1CC1(C(=O)N1C3CCC1CN(C)C3)Cn1c-2c(C2CCCCC2)c2ccc(C(=O)NS(=O)(=O)N3CCCCC3)cc21 (stereo not shown) [drawing 95]			1 to 500	1 to 500
CCN(C)S(=O)(=O)NC(=O)c1ccc2c(C3CCCCC3)c3n(c2c1)CC1(C(=O)N2C4CCC2CN(C)C4)CC1c1cc(OC)ccc1-3 (stereo not shown) [drawing 96]			1 to 500	1 to 500
CCN(CC)S(=O)(=O)NC(=O)c1ccc2c(C3CCCCC3)c3n(c2c1)CC1(C(=O)N2C4CCC2CN(C)C4)CC1c1cc(OC)ccc1-3 (stereo not shown) [drawing 97]			1 to 500	1 to 500

Compound	IC50 [1, 3] [nM]	EC50 [2, 4] [nM]	IC50 [1] [nM]	EC50 ([2]; Hepatitis C virus) [nM]
COc1ccc2c(c1)C1CC1(C(=O)N1C3CCC1CN(C)C3)Cn1c-2c(C2CCCCC2)c2ccc(C(=O)NS(=O)(=O)N(C)C(C)C)cc21 (stereo not shown) [drawing 98]			1 to 500	1 to 500
COc1ccc2c(c1)C1CC1(C(=O)N1C3CCC1CN(C)C3)Cn1c-2c(C2CCCCC2)c2ccc(C(=O)NS(=O)(=O)N(C)C3CC3)cc21 (stereo not shown) [drawing 99]			1 to 500	1 to 500
COc1ccc2c(c1)C1CC1C(C(=O)N1C3CCC1CN(C)C3)n1c-2c(C2CCCCC2)c2ccc(C(=O)NS(=O)(=O)C3CC3)cc21 (stereo not shown) [drawing 100]			1 to 500	1 to 500
COc1ccc2c(c1)C1CC1(C(=O)N1C3CCC1CN(C)C3)Cn1c-2c(C2CCCCC2)c2ccc(C(=O)NS(=O)(=O)N3CCC3)cc21 (stereo not shown) [drawing 101]			1 to 500	1 to 500
COc1ccc2c(c1)C1CC1(C(=O)N1C3CCC1CN(C)C3)Cn1c-2c(C2CCCCC2)c2ccc(C(=O)NS(C)(=O)=O)cc21 (stereo not shown) [drawing 102]	1 to 500	1 to 500		
CN1CC2CCC(C1)N2C(=O)C12CC1c1cc(OC(F)F)ccc1-c1c(C3CCCCC3)c3ccc(C(=O)NS(=O)(=O)N(C)C)cc3n1C2 (stereo not shown) [drawing 103]	1 to 500	1 to 500		
CCS(=O)(=O)NC(=O)c1ccc2c(C3CCCCC3)c3n(c2c1)CC1(C(=O)N2C4CCC2CN(C)C4)CC1c1cc(OC)ccc1-3 (stereo not shown) [drawing 104]	1 to 500	1 to 500		
CCN(CC)C(=O)N1CC2CCC(C1)N2C(=O)C12CC1c1cc(OC)ccc1-c1c(C3CCCCC3)c3ccc(C(=O)NS(=O)(=O)C4CC4)cc3n1C2 (stereo not shown) [drawing 105]	1 to 500	1 to 500		
CCN(CC)C(=O)N1CC2CCC(C1)N2C(=O)C12CC1c1cc(OC)ccc1-c1c(C3CCCCC3)c3ccc(C(=O)NS(=O)(=O)N4CCN(C)CC4)cc3n1C2 (stereo not shown) [drawing 106]	1 to 500	1 to 500		
COc1ccc2c(c1)C1CC1(C(=O)N1C3CCC1CN(C)C3)Cn1c-2c(C2CCCCC2)c2ccc(C(=O)NS(=O)(=O)N3C[C@@H](C)O[C@@H](C)C3)cc21 (stereo partly shown) [drawing 107]	1 to 500	1 to 500		
COc1ccc2c(c1)C1CC1(C(=O)N1C3CCC1CN(C)C3)Cn1c-2c(C2CCCCC2)c2ccc(C(=O)NS(=O)(=O)N3CCCCC3)cc21 (stereo not shown) [drawing 108]	1 to 500	1 to 500		
CCN(C)S(=O)(=O)NC(=O)c1ccc2c(C3CCCCC3)c3n(c2c1)CC1(C(=O)N2C4CCC2CN(C)C4)CC1c1cc(OC)ccc1-3 (stereo not shown) [drawing 109]	1 to 500	1 to 500		
CCN(CC)S(=O)(=O)NC(=O)c1ccc2c(C3CCCCC3)c3n(c2c1)CC1(C(=O)N2C4CCC2CN(C)C4)CC1c1cc(OC)ccc1-3 (stereo not shown) [drawing 110]	1 to 500	1 to 500		
COc1ccc2c(c1)C1CC1(C(=O)N1C3CCC1CN(C)C3)Cn1c-2c(C2CCCCC2)c2ccc(C(=O)NS(=O)(=O)N(C)C(C)C)cc21 (stereo not shown) [drawing 111]	1 to 500	1 to 500		
COc1ccc2c(c1)C1CC1(C(=O)N1C3CCC1CN(C)C3)Cn1c-2c(C2CCCCC2)c2ccc(C(=O)NS(=O)(=O)N(C)C3CC3)cc21 (stereo not shown) [drawing 112]	1 to 500	1 to 500		
COc1ccc2c(c1)C1CC1C(C(=O)N1C3CCC1CN(C)C3)n1c-2c(C2CCCCC2)c2ccc(C(=O)NS(=O)(=O)C3CC3)cc21 (stereo not shown) [drawing 113]	1 to 500	1 to 500		
COc1ccc2c(c1)C1CC1(C(=O)N1C3CCC1CN(C)C3)Cn1c-2c(C2CCCCC2)c2ccc(C(=O)NS(C)(=O)=O)cc21 (stereo not shown) [drawing 114]	1 to 500	1 to 500		
CCC(C)S(=O)(=O)NC(=O)c1ccc2c(C3CCCCC3)c3n(c2c1)C[C@@]1(C(=O)N2C4CCC2CN(C)C4)C[C@H]1c1cc(OC)ccc1-3 (stereo partly shown) [drawing 132]			1 to 500	1 to 500
CCC(C)S(=O)(=O)NC(=O)c1ccc2c(C3CCCCC3)c3n(c2c1)C[C@@]1(C(=O)N2C4CCC2CN(C)C4)C[C@H]1c1cc(OC)ccc1-3 (stereo partly shown) [drawing 133]	1 to 500	1 to 500		
